Assay type in all cases: cell-based
The subject of assay [1] is E. faecium ATCC 35667. As to the kind of experiment: In vitro antibacterial evaluation, MIC by agar dilution, E. faecium ATCC 35667. To be noted: Enterococcus faecium, ATCC35667, read-out: MIC. The gist of the method: (§1)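 Minimum inhibitory concentrations came from the NCCLS agar dilution method in Mueller-Hinton agar. Each isolate received about 10^4 cfu per spot, and plates were read after 16-20 hours at 35°-36° C.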
For orientation: In agar dilution the substance is mixed into plates at graded concentrations.

Assay [2] deals with E. coli ATCC 25922. In words: In vitro antibacterial evaluation, MIC by agar dilution, E. coli ATCC 25922. The note with it: Escherichia coli, ATCC25922, read-out: MIC. Put shortly: as §1
For assay [3], the system named is S. aureus ATCC 29213. In words: In vitro antibacterial evaluation, MIC by agar dilution, S. aureus ATCC 29213. The note with it: Staphylococcus aureus, ATCC29213. Put shortly: as §1
The subject of assay [4] is S. aureus 76 (Meth^R)(lac^+). As to the kind of experiment: In vitro antibacterial evaluation, MIC by agar dilution, S. aureus 76. The note with it: Staphylococcus aureus, read-out: MIC. Put shortly: as §1
The test system of assay [5] is P. aeruginosa ATCC 27853. In words: In vitro antibacterial evaluation, MIC by agar dilution, P. aeruginosa ATCC 27853. The note with it: Pseudomonas aeruginosa, ATCC27853, read-out: MIC. Put shortly:
as §1

For assay [6], the system named is E. faecalis ATCC 29212. As to the kind of experiment: In vitro antibacterial evaluation, MIC by agar dilution, E. faecalis ATCC 29212. To be noted: Enterococcus faecalis, ATCC29212; E. faecalis ATCC 29212; read-out: MIC. Put shortly:
as §1

Assay [7] has as its system S. epidermidis ATCC 31432. In words: In vitro antibacterial evaluation, MIC by agar dilution, S. epidermidis ATCC 31432. To be noted: Staphylococcus epidermidis, ATCC31432. Put shortly: as §1
The test system of assay [8] is S. aureus Col8A (Meth^S)(lac^-). As to the kind of experiment: In vitro antibacterial evaluation, MIC by agar dilution, S. aureus Col8A. The note with it: Staphylococcus aureus. Put shortly:
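Agar dilution per NCCLS (1991): two-fold dilutions from 128 μg/mL down to ≤0.25 μg/mL in Mueller-Hinton agar, each level in duplicate. Spots of about 10^4 cfu of log-phase culture; 16-20 h at 35°-36° C. MIC in μg/ml is the lowest concentration inhibiting growth.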

Assay [9] deals with S. haemolyticus (Meth^R). In words: In vitro antibacterial evaluation, MIC by agar dilution, S. haemolyticus. The note with it: Staphylococcus haemolyticus, read-out: MIC. The gist of the method: as §1
The subject of assay [10] is S. aureus ATCC 25923. In words: In vitro antibacterial evaluation, MIC by agar dilution, S. aureus ATCC 25923. The note with it: Staphylococcus aureus, ATCC25923. The gist of the method:
as §1

[11] abbreviates: S. aureus ATCC 29213, read-out: MIC.
Where [12] appears, read: S. epidermidis ATCC 31432, read-out: MIC.
Setting [13] is: S. aureus ATCC 25923, read-out: MIC.

In brackets after ≈: the same amount, converted by molar mass. Where a name gives a salt, the structure may show the parent alone. Read-outs that look alike come from different tables or passages of the source.

As to `CNC(=N)SCc1ccccc1SC1=C(C(=O)O)N2C(=O)[C@@H](NC(=O)Cc3ccccc3)[C@H]2SC1` [Cmpd 76, (7R)-7-[(Phenylacetyl)amino]-3-(2-N-methylisothiouroniummethylphenylthio)-3-cephem-4-carboxylate, inner salt], the MIC (usually the lowest concentration that inhibits growth of the organism) was 2 µg/mL in assay [1]; over 32 µg/mL in assay [2]; under 0.25 µg/mL in assay [3]; 8 µg/mL in assay [4]; over 32 µg/mL in [5]; 1 µg/mL in assay [6]. The MIC in assay [7] is under 0.25 µg/mL; in assay [8] it was under 0.25 µg/mL; in assay [9] it was 32 µg/mL; in assay [10], under 0.25 µg/mL.

As for `CCN=C(NCC)SCc1ccccc1SC1=C(C(=O)O)N2C(=O)[C@@H](NC(=O)Cc3ccccc3)[C@H]2SC1` [Cmpd 74, (7R)-7-[(Phenylacetyl)amino]-3-(2-N,N'-diethylisothiouroniummethylphenylthio)-3-cephem-4-carboxylate, inner salt], the MIC was 2 µg/mL in assay [1]; over 32 µg/mL in [2]; under 0.25 µg/mL in [3]; 32 µg/mL in assay [4]; over 32 µg/mL in [5]; 1 µg/mL in assay [6]. For the same molecule, the MIC in assay [7] is under 0.25 µg/mL; in assay [8], under 0.25 µg/mL; in assay [9] it was over 32 µg/mL; in assay [10], under 0.25 µg/mL.

Take `O=C(Cc1ccccc1)N[C@@H]1C(=O)N2C(C(=O)O)=C(Sc3ccccc3CSc3ncn[nH]3)CS[C@H]12` [Cmpd 67, (7R)-7-[(Phenylacetyl)amino]-3-(2-(1,2,4-triazol-5-ylthiomethyl)phenylthio)-3-cephem-4-carboxylic acid]: the MIC in assay [1] was 2 µg/mL (≈ 3.71 µM); in assay [2], over 32 µg/mL; in assay [3] it was under 0.25 µg/mL; in assay [4], 16 µg/mL (≈ 29.6 µM); in [5] it was over 32 µg/mL; in assay [6] it was 2 µg/mL (≈ 3.71 µM). The MIC is under 0.25 µg/mL in assay [7], under 0.25 µg/mL in [8], 16 µg/mL (≈ 29.6 µM) in assay [9] and under 0.25 µg/mL in assay [10].

Turning to `N#CCC(=O)N[C@@H]1C(=O)N2C(C(=O)O)=C(Sc3ccccc3C#N)CS[C@H]12` [Cmpd 52, (7R)-7-[(Cyanoacetyl)amino]-3-(2-cyanophenylthio)-3-cephem-4-carboxylic acid], the MIC in assay [1] is 2 µg/mL (≈ 4.99 µM); in [2] it was over 32 µg/mL; in assay [3] (setting [11]), 0.5 µg/mL (≈ 1.25 µM); in assay [4] it was 16 µg/mL (≈ 40 µM); in assay [5], over 32 µg/mL; in [6], 4 µg/mL (≈ 9.99 µM). Further, the minimal inhibitory concentration (MIC) in assay [7] (setting [12]) is under 0.25 µg/mL; in [8], 0.5 µg/mL (≈ 1.25 µM); in [9], 16 µg/mL (≈ 40 µM); in assay [10] (setting [13]) it was under 0.25 µg/mL.

With `O=C(Cc1ccccc1)N[C@@H]1C(=O)N2C(C(=O)O)=C(Sc3ccccc3CSc3ccncc3)CS[C@H]12` [Cmpd 70], the MIC in [1] was 2 µg/mL (≈ 3.64 µM); in assay [2], over 32 µg/mL; in assay [3], under 0.25 µg/mL; in assay [4], 16 µg/mL (≈ 29.1 µM); in assay [5], over 32 µg/mL; in assay [6], 0.5 µg/mL (≈ 0.91 µM). Besides, the MIC in [7] is under 0.25 µg/mL; in assay [8], under 0.25 µg/mL; in assay [9] it was 32 µg/mL (≈ 58.2 µM); in assay [10], under 0.25 µg/mL.

Take `Cc1nnc(SCc2ccccc2SC2=C(C(=O)O)N3C(=O)[C@@H](NC(=O)Cc4ccccc4)[C@H]3SC2)s1` [Cmpd 77]: the MIC in assay [1] was 2 µg/mL (≈ 3.5 µM); in assay [2], over 32 µg/mL; in assay [3], under 0.25 µg/mL; in [4], 32 µg/mL (≈ 56.1 µM); in assay [5], over 32 µg/mL; in [6] it was 1 µg/mL (≈ 1.75 µM). The MIC in assay [7] was under 0.25 µg/mL; in assay [8], under 0.25 µg/mL; in [9] it was over 32 µg/mL; in [10], under 0.25 µg/mL.

In the case of `Nc1nc(/C(=N/OCCF)C(=O)N[C@@H]2C(=O)N3C(C(=O)O)=C(Sc4ccnn4-c4ccccc4)CS[C@H]23)cs1` [Cmpd 90, (7R)-7-[(Z)-2-(aminothiazol-4-yl)-2-(2-fluoroethyloxyimino)acetamido]-3-(1-N-phenylpyrazol-5-ylthio)-3-cephem-4-carboxylic acid], the MIC in assay [1] turned out to be 16 µg/mL (≈ 27.1 µM); in assay [2], 4 µg/mL (≈ 6.78 µM); in assay [3] (setting [11]), 1 µg/mL (≈ 1.7 µM); in [4], 16 µg/mL (≈ 27.1 µM); in assay [5] it was 16 µg/mL (≈ 27.1 µM); in assay [6], 32 µg/mL (≈ 54.3 µM). The MIC in assay [7] (setting [12]) is under 0.25 µg/mL; in assay [8] it was 1 µg/mL (≈ 1.7 µM); in assay [9] it was 32 µg/mL (≈ 54.3 µM); in assay [10] (setting [13]), 0.5 µg/mL (≈ 0.848 µM).

In the case of `N#Cc1ccc(SC2=C(C(=O)O)N3C(=O)[C@@H](NC(=O)Cc4ccccc4)[C@H]3SC2)c(C#N)c1` [Cmpd 51, (7R)-7-[(Phenylacetyl)amino]-3-(2,4-dicyanophenylthio)-3-cephem-4-carboxylic acid], the minimal inhibitory concentration (MIC) in assay [1] was 4 µg/mL (≈ 8.39 µM); in [2] it was over 32 µg/mL; in assay [3] (setting [11]) it was 0.5 µg/mL (≈ 1.05 µM); in [4] it was 8 µg/mL (≈ 16.8 µM); in assay [5], over 32 µg/mL; in [6] it was 4 µg/mL (≈ 8.39 µM). The MIC in [7] was under 0.25 µg/mL; in assay [8] it was under 0.25 µg/mL; in [9] it was 32 µg/mL (≈ 67.2 µM); in assay [10], under 0.25 µg/mL.

For `CN(C)C(SCc1ccccc1SC1=C(C(=O)[O-])N2C(=O)[C@@H](NC(=O)Cc3ccccc3)[C@H]2SC1)=[N+](C)C` [Cmpd 69, (7R)-7-[(Phenylacetyl)amino]-3-(2-tetramethylisothiouroniummethylphenylthio)-3-cephem-4-carboxylate, inner salt], the minimum inhibitory concentration (MIC) was 2 µg/mL in [1]; over 32 µg/mL in [2]; under 0.25 µg/mL in [3]; 16 µg/mL in [4]; over 32 µg/mL in [5]; 2 µg/mL in assay [6]. The MIC was under 0.25 µg/mL in [7], under 0.25 µg/mL in assay [8], 32 µg/mL in [9] and under 0.25 µg/mL in assay [10].

On to `O=C(Cc1ccccc1)N[C@@H]1C(=O)N2C(C(=O)O)=C(Sc3ccccc3CSc3ncccn3)CS[C@H]12` [Cmpd 75], for which the MIC in assay [1] is 2 µg/mL (≈ 3.63 µM); in [2] it was over 32 µg/mL; in assay [3] it was under 0.25 µg/mL; in assay [4] it was 32 µg/mL (≈ 58.1 µM); in assay [5], over 32 µg/mL; in assay [6], 1 µg/mL (≈ 1.82 µM). Further, the MIC in assay [7] is under 0.25 µg/mL; in [8] it was under 0.25 µg/mL; in assay [9] it was over 32 µg/mL; in assay [10], under 0.25 µg/mL.

With `O=C(Cc1ccccc1)N[C@@H]1C(=O)N2C(C(=O)O)=C(Sc3ccc(CSc4ncn[nH]4)cc3)CS[C@H]12` [Cmpd 65, (7R)-7-[(Phenylacetyl)amino]-3-(4-(1,2,4-triazol-5-ylthiomethyl)phenylthio)-3-cephem-4-carboxylic acid], the MIC in assay [1] is 2 µg/mL (≈ 3.71 µM); in assay [2] it was over 32 µg/mL; in [3] it was under 0.25 µg/mL; in assay [4], 32 µg/mL (≈ 59.3 µM); in assay [5], over 32 µg/mL; in assay [6], 1 µg/mL (≈ 1.85 µM). Also, the MIC in [7] was under 0.25 µg/mL; in assay [8], under 0.25 µg/mL; in assay [9], 32 µg/mL (≈ 59.3 µM); in assay [10], under 0.25 µg/mL.

For the molecule `Cn1nnnc1SCc1ccccc1SC1=C(C(=O)O)N2C(=O)[C@@H](NC(=O)Cc3ccccc3)[C@H]2SC1` [Cmpd 71], the MIC in assay [1] was 2 µg/mL (≈ 3.61 µM); in [2], over 32 µg/mL; in [3], under 0.25 µg/mL; in assay [4] it was over 32 µg/mL; in assay [5], over 32 µg/mL; in [6] it was 1 µg/mL (≈ 1.8 µM). The MIC is under 0.25 µg/mL in assay [7], under 0.25 µg/mL in assay [8], over 32 µg/mL in assay [9] and under 0.25 µg/mL in assay [10].

Consider `O=C(Cc1ccccc1)N[C@@H]1C(=O)N2C(C(=O)O)=C(Sc3ccccc3CSC3=NCCN3)CS[C@H]12` [Cmpd 72], for which the MIC in [1] is 2 µg/mL (≈ 3.7 µM); in assay [2], over 32 µg/mL; in assay [3] it was under 0.25 µg/mL; in [4] it was 16 µg/mL (≈ 29.6 µM); in [5], over 32 µg/mL; in assay [6] it was 1 µg/mL (≈ 1.85 µM). For the same molecule, the MIC was under 0.25 µg/mL in [7], under 0.25 µg/mL in assay [8], 32 µg/mL (≈ 59.2 µM) in assay [9] and under 0.25 µg/mL in [10].

The record behind these values is patent US5607926A, “Cephalosporin antibiotics” (Microcide Pharmaceuticals, Inc., priority 1995, dated 1997).
